# Laboratory results taken from publication PMC11845477, “Exploring the principles behind antibiotics with limited resistance” (Nature Communications, 2025).
# Experiments:
# [1] = tested on: E. coli ATCC 25922 (SEN) and E. coli NCTC13846 (MDR); test: Adaptive laboratory evolution (ALE), relative MIC of evolved lines; format: cell-based, Escherichia coli
# Outline: (§1)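 Ten parallel populations per antibiotic–ancestor pair were evolved in MHB at 37 °C, starting near 50% growth-inhibiting drug. Every 72 h they were passaged into 0.5–2.5× increasing concentrations, keeping the highest-drug well with OD600 > 0.2.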
# [2] = tested on: K. pneumoniae ATCC 10031 (SEN) and K. pneumoniae ATCC 700603 (MDR); test: as above; format: cell-based, Klebsiella pneumoniae
# Outline: as §1
# [3] = EC-SEN (Escherichia coli ATCC 25922), evolved line 1 adapted to the named antibiotic
# [4] = EC-SEN (Escherichia coli ATCC 25922), evolved line 2 adapted to the named antibiotic
# [5] = EC-SEN (Escherichia coli ATCC 25922), evolved line 4
# [6] = EC-SEN (Escherichia coli ATCC 25922), evolved line 5
# [7] = EC-SEN (Escherichia coli ATCC 25922), evolved line 5 adapted to the named antibiotic
# [8] = EC-SEN (Escherichia coli ATCC 25922), evolved line 7
# [9] = EC-SEN (Escherichia coli ATCC 25922), evolved line 8
# [10] = EC-SEN (Escherichia coli ATCC 25922), evolved line 10
# [11] = EC-SEN, Escherichia coli ATCC 25922, evolved line 1
# [12] = EC-SEN, Escherichia coli ATCC 25922, evolved line 2
# [13] = KP-SEN (Klebsiella pneumoniae ATCC 10031), evolved line 1
# [14] = KP-SEN (Klebsiella pneumoniae ATCC 10031), evolved line 2
# [15] = KP-SEN (Klebsiella pneumoniae ATCC 10031), evolved line 2 adapted to the named antibiotic
# [16] = KP-SEN (Klebsiella pneumoniae ATCC 10031), evolved line 3
# [17] = KP-SEN (Klebsiella pneumoniae ATCC 10031), evolved line 4
# [18] = KP-SEN (Klebsiella pneumoniae ATCC 10031), evolved line 6
# [19] = KP-SEN (Klebsiella pneumoniae ATCC 10031), evolved line 6 adapted to the named antibiotic
# [20] = KP-SEN (Klebsiella pneumoniae ATCC 10031), evolved line 8
# [21] = KP-SEN (Klebsiella pneumoniae ATCC 10031), evolved line 9
# [22] = KP-SEN, Klebsiella pneumoniae ATCC 10031, evolved line 5
# [23] = KP-SEN, Klebsiella pneumoniae ATCC 10031, evolved line 7
smiles,measurement,setting,value
O=c1ccc2ncc(=O)n3c2n1C[C@H]3CN1CCC(NCc2cc3c(cn2)OCCC3)CC1 [Gepotidacin],Relative MIC,"[1]; EC-MDR (Escherichia coli NCTC 13846), evolved line 2",32
same,Relative MIC (log10),"[1]; EC-MDR (Escherichia coli NCTC 13846), evolved line 2 adapted to the named antibiotic",1.505
same,Relative MIC,"[1]; EC-MDR (Escherichia coli NCTC 13846), evolved line 4",16
same,Relative MIC (log10),"[1]; EC-MDR (Escherichia coli NCTC 13846), evolved line 4 adapted to the named antibiotic",1.204
same,Relative MIC (log10),"[1]; EC-MDR (Escherichia coli NCTC 13846), evolved line 6 adapted to the named antibiotic",1.505
same,Relative MIC (log10),"[1]; EC-MDR (Escherichia coli NCTC 13846), evolved line 7 adapted to the named antibiotic",1.505
same,Relative MIC,"[1]; EC-MDR (Escherichia coli NCTC 13846), evolved line 8",16
same,Relative MIC,"[1]; EC-MDR (Escherichia coli NCTC 13846), evolved line 9",32
same,Relative MIC (log10),"[1]; EC-MDR (Escherichia coli NCTC 13846), evolved line 9 adapted to the named antibiotic",1.505
same,Relative MIC,"[1]; EC-MDR (Escherichia coli NCTC 13846), evolved line 10",32
same,Relative MIC,"[1]; EC-MDR, Escherichia coli NCTC 13846, evolved line 1 versus ancestor",16
same,Relative MIC,"[1]; EC-MDR, Escherichia coli NCTC 13846, evolved line 2 versus ancestor",32
same,Relative MIC,"[1]; EC-MDR, Escherichia coli NCTC 13846, evolved line 3 versus ancestor",8
same,Relative MIC,"[1]; EC-MDR, Escherichia coli NCTC 13846, evolved line 4 versus ancestor",16
same,Relative MIC,"[1]; EC-MDR, Escherichia coli NCTC 13846, evolved line 6 versus ancestor",32
same,Relative MIC,"[1]; EC-MDR, Escherichia coli NCTC 13846, evolved line 7 versus ancestor",32
same,Relative MIC,"[1]; EC-MDR, Escherichia coli NCTC 13846, evolved line 8 versus ancestor",16
same,Relative MIC,"[1]; EC-MDR, Escherichia coli NCTC 13846, evolved line 9 versus ancestor",32
same,Relative MIC,"[1]; EC-MDR, Escherichia coli NCTC 13846, evolved line 10 versus ancestor",32
same,Relative MIC,"[1]; EC-MDR, Escherichia coli NCTC 13846, evolved line 1",16
same,Relative MIC,"[1]; EC-MDR, Escherichia coli NCTC 13846, evolved line 3",8
same,Relative MIC,"[1]; EC-MDR, Escherichia coli NCTC 13846, evolved line 6",32
same,Relative MIC,"[1]; EC-MDR, Escherichia coli NCTC 13846, evolved line 7",32
same,Relative MIC (log10),[1]; [3],2.107
same,Relative MIC (log10),[1]; [4],1.806
same,Relative MIC,[1]; [5],128
same,Relative MIC (log10),"[1]; EC-SEN (Escherichia coli ATCC 25922), evolved line 4 adapted to the named antibiotic",2.107
same,Relative MIC,[1]; [6],128
same,Relative MIC (log10),[1]; [7],2.107
same,Relative MIC,[1]; [8],64
same,Relative MIC,[1]; [9],4
same,Relative MIC,[1]; [10],128
same,Relative MIC,"[1]; EC-SEN, Escherichia coli ATCC 25922, evolved line 1 versus ancestor",128
same,Relative MIC,"[1]; EC-SEN, Escherichia coli ATCC 25922, evolved line 2 versus ancestor",64
same,Relative MIC,"[1]; EC-SEN, Escherichia coli ATCC 25922, evolved line 4 versus ancestor",128
same,Relative MIC,"[1]; EC-SEN, Escherichia coli ATCC 25922, evolved line 5 versus ancestor",128
same,Relative MIC,"[1]; EC-SEN, Escherichia coli ATCC 25922, evolved line 7 versus ancestor",64
same,Relative MIC,"[1]; EC-SEN, Escherichia coli ATCC 25922, evolved line 8 versus ancestor",4
same,Relative MIC,"[1]; EC-SEN, Escherichia coli ATCC 25922, evolved line 10 versus ancestor",128
same,Relative MIC,[1]; [11],128
same,Relative MIC,[1]; [12],64
same,Relative MIC,[2]; [13],2048
same,Relative MIC,[2]; [14],2048
same,Relative MIC (log10),[2]; [15],3.311
same,Relative MIC,[2]; [16],1024
same,Relative MIC (log10),"[2]; KP-SEN (Klebsiella pneumoniae ATCC 10031), evolved line 3 adapted to the named antibiotic",3.0103
same,Relative MIC,[2]; [17],1024
same,Relative MIC,[2]; [18],2048
same,Relative MIC (log10),[2]; [19],3.311
same,Relative MIC (log10),"[2]; KP-SEN (Klebsiella pneumoniae ATCC 10031), evolved line 7 adapted to the named antibiotic",3.311
same,Relative MIC,[2]; [20],1024
same,Relative MIC,[2]; [21],1024
same,Relative MIC,"[2]; KP-SEN, Klebsiella pneumoniae ATCC 10031, evolved line 1 versus ancestor",2048
same,Relative MIC,"[2]; KP-SEN, Klebsiella pneumoniae ATCC 10031, evolved line 2 versus ancestor",2048
same,Relative MIC,"[2]; KP-SEN, Klebsiella pneumoniae ATCC 10031, evolved line 3 versus ancestor",1024
same,Relative MIC,"[2]; KP-SEN, Klebsiella pneumoniae ATCC 10031, evolved line 4 versus ancestor",1024
same,Relative MIC,"[2]; KP-SEN, Klebsiella pneumoniae ATCC 10031, evolved line 5 versus ancestor",1024
same,Relative MIC,"[2]; KP-SEN, Klebsiella pneumoniae ATCC 10031, evolved line 6 versus ancestor",2048
same,Relative MIC,"[2]; KP-SEN, Klebsiella pneumoniae ATCC 10031, evolved line 7 versus ancestor",2048
same,Relative MIC,"[2]; KP-SEN, Klebsiella pneumoniae ATCC 10031, evolved line 8 versus ancestor",1024
same,Relative MIC,"[2]; KP-SEN, Klebsiella pneumoniae ATCC 10031, evolved line 9 versus ancestor",1024
same,Relative MIC,[2]; [22],1024
same,Relative MIC,[2]; [23],2048
CN(C)c1cc(CNCC(C)(C)C)c(O)c2c1C[C@H]1C[C@H]3[C@H](N(C)C)C(O)=C(C(N)=O)C(=O)[C@@]3(O)C(O)=C1C2=O [Omadacycline],Relative MIC (log10),[1]; [3],0.9031
same,Relative MIC (log10),[1]; [4],0.9031
same,Relative MIC,"[1]; EC-SEN (Escherichia coli ATCC 25922), evolved line 3",4
same,Relative MIC,[1]; [5],8
same,Relative MIC,[1]; [6],8
same,Relative MIC (log10),[1]; [7],0.9031
same,Relative MIC,"[1]; EC-SEN (Escherichia coli ATCC 25922), evolved line 6",4
same,Relative MIC (log10),"[1]; EC-SEN (Escherichia coli ATCC 25922), evolved line 6 adapted to the named antibiotic",0.6021
same,Relative MIC,[1]; [8],2
same,Relative MIC,[1]; [9],8
same,Relative MIC,"[1]; EC-SEN (Escherichia coli ATCC 25922), evolved line 9",8
same,Relative MIC (log10),"[1]; EC-SEN (Escherichia coli ATCC 25922), evolved line 9 adapted to the named antibiotic",0.9031
same,Relative MIC,[1]; [10],4
same,Relative MIC,"[1]; EC-SEN ATCC 25922, evolved line 1, evolved line vs ancestor",8
same,Relative MIC,"[1]; EC-SEN ATCC 25922, evolved line 2, evolved line vs ancestor",8
same,Relative MIC,"[1]; EC-SEN ATCC 25922, evolved line 3, evolved line vs ancestor",4
same,Relative MIC,"[1]; EC-SEN ATCC 25922, evolved line 4, evolved line vs ancestor",8
same,Relative MIC,"[1]; EC-SEN ATCC 25922, evolved line 5, evolved line vs ancestor",8
same,Relative MIC,"[1]; EC-SEN ATCC 25922, evolved line 6, evolved line vs ancestor",4
same,Relative MIC,"[1]; EC-SEN ATCC 25922, evolved line 7, evolved line vs ancestor",2
same,Relative MIC,"[1]; EC-SEN ATCC 25922, evolved line 8, evolved line vs ancestor",8
same,Relative MIC,"[1]; EC-SEN ATCC 25922, evolved line 9, evolved line vs ancestor",8
same,Relative MIC,"[1]; EC-SEN ATCC 25922, evolved line 10, evolved line vs ancestor",4
same,Relative MIC,[1]; [11],8
same,Relative MIC,[1]; [12],8
same,Relative MIC,[2]; [13],128
same,Relative MIC (log10),"[2]; KP-SEN (Klebsiella pneumoniae ATCC 10031), evolved line 1 adapted to the named antibiotic",2.107
same,Relative MIC,[2]; [14],128
same,Relative MIC (log10),[2]; [15],2.107
same,Relative MIC,[2]; [16],64
same,Relative MIC,[2]; [17],64
same,Relative MIC (log10),"[2]; KP-SEN (Klebsiella pneumoniae ATCC 10031), evolved line 5 adapted to the named antibiotic",2.107
same,Relative MIC,[2]; [18],128
same,Relative MIC (log10),[2]; [19],2.107
same,Relative MIC,[2]; [20],64
same,Relative MIC,[2]; [21],128
same,Relative MIC (log10),"[2]; KP-SEN (Klebsiella pneumoniae ATCC 10031), evolved line 9 adapted to the named antibiotic",2.107
same,Relative MIC,"[2]; KP-SEN (Klebsiella pneumoniae ATCC 10031), evolved line 10",128
same,Relative MIC,"[2]; KP-SEN ATCC 10031, evolved line 1, evolved line vs ancestor",128
same,Relative MIC,"[2]; KP-SEN ATCC 10031, evolved line 2, evolved line vs ancestor",128
same,Relative MIC,"[2]; KP-SEN ATCC 10031, evolved line 3, evolved line vs ancestor",64
same,Relative MIC,"[2]; KP-SEN ATCC 10031, evolved line 4, evolved line vs ancestor",64
same,Relative MIC,"[2]; KP-SEN ATCC 10031, evolved line 5, evolved line vs ancestor",128
same,Relative MIC,"[2]; KP-SEN ATCC 10031, evolved line 6, evolved line vs ancestor",128
same,Relative MIC,"[2]; KP-SEN ATCC 10031, evolved line 7, evolved line vs ancestor",32
same,Relative MIC,"[2]; KP-SEN ATCC 10031, evolved line 8, evolved line vs ancestor",64
same,Relative MIC,"[2]; KP-SEN ATCC 10031, evolved line 9, evolved line vs ancestor",128
same,Relative MIC,"[2]; KP-SEN ATCC 10031, evolved line 10, evolved line vs ancestor",128
same,Relative MIC,[2]; [22],128
same,Relative MIC,[2]; [23],32
